Measurements taken from paper PMC13598332, “Selective activation of tetrodotoxin-sensitive sodium channels by AaH-II drives arrhythmogenic late Na^+ current in the heart” (Europace, 2026).
Read-outs that look alike come from different tables or passages of the source.

What was measured:
Wistar-Han rats = assay type: in vivo, rat; settings: for QTc / RR / P wave / PR / QRS / T wave area: mean ± SEM
hNav1.5 [1] = biological target: T1, hNav1.5 (Homo sapiens, UniProt Q14524); assay type: cell-based; settings: for Na+ entry through hNav1.5 in action potential-mimicking protocol: 10 μM TTX-subtracted current
hNav1.4 = hNav1.4 (Homo sapiens, UniProt P35499); assay type: cell-based
hNav1.2 = hNav1.2 (Homo sapiens, UniProt Q99250); assay type: cell-based
hNav1.2, sequence (Q99250 whole entry): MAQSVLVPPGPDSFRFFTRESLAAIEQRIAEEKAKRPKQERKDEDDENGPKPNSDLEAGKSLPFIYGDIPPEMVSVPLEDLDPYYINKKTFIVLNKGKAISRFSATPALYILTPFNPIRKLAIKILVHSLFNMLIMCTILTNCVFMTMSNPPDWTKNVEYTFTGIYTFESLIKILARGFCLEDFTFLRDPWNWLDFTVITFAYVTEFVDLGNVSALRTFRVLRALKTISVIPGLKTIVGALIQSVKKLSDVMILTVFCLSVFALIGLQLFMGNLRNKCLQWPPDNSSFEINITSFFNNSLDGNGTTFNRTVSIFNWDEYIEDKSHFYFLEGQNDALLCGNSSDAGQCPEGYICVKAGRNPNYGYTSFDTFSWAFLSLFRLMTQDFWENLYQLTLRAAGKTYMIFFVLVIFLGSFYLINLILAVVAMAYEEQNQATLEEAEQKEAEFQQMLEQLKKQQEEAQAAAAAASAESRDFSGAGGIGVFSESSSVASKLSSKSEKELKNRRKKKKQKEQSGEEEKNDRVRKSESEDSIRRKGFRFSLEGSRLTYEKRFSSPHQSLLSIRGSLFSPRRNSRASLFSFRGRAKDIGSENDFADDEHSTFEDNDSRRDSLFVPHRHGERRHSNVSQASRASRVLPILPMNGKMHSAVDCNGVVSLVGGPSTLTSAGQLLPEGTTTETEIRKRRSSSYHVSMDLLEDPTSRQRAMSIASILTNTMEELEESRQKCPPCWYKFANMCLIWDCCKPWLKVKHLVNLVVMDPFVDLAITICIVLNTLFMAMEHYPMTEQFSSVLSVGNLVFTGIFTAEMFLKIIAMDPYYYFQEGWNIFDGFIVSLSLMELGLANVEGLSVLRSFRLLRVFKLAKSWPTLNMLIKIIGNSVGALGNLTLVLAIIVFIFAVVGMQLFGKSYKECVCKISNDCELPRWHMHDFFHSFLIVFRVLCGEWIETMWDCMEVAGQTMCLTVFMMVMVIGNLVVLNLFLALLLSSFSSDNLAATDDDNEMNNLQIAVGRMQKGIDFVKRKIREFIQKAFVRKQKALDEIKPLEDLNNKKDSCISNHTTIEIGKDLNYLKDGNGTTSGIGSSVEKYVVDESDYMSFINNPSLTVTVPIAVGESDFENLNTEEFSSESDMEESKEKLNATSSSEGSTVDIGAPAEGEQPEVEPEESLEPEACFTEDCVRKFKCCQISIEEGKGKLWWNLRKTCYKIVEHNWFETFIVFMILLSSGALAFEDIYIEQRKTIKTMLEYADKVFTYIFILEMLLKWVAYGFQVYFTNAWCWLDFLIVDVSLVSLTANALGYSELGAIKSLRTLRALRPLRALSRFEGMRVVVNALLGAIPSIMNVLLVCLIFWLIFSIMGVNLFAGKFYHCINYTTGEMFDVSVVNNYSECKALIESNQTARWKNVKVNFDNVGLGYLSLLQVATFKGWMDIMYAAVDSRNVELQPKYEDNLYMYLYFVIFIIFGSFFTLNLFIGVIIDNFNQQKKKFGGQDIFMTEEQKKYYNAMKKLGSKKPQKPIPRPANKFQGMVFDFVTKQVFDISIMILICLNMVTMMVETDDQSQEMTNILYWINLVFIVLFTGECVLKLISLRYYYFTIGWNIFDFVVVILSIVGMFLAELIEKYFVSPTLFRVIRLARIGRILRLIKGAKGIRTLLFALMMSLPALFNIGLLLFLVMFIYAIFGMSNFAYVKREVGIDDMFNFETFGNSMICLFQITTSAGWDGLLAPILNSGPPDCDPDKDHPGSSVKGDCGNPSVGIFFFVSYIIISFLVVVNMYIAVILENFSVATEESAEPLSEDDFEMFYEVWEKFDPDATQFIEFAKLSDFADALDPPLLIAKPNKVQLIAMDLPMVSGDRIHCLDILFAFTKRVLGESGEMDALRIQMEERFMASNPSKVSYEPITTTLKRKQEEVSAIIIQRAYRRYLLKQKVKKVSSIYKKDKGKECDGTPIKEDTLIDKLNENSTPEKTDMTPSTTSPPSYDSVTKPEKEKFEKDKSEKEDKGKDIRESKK

in vivo = settings: Wistar-Han, rat, iv
hNav1.6 = hNav1.6 (Homo sapiens, UniProt Q9UQD0); assay type: cell-based
hNav1.6, sequence (Q9UQD0 other isoform, or with tags, fused parts or gaps): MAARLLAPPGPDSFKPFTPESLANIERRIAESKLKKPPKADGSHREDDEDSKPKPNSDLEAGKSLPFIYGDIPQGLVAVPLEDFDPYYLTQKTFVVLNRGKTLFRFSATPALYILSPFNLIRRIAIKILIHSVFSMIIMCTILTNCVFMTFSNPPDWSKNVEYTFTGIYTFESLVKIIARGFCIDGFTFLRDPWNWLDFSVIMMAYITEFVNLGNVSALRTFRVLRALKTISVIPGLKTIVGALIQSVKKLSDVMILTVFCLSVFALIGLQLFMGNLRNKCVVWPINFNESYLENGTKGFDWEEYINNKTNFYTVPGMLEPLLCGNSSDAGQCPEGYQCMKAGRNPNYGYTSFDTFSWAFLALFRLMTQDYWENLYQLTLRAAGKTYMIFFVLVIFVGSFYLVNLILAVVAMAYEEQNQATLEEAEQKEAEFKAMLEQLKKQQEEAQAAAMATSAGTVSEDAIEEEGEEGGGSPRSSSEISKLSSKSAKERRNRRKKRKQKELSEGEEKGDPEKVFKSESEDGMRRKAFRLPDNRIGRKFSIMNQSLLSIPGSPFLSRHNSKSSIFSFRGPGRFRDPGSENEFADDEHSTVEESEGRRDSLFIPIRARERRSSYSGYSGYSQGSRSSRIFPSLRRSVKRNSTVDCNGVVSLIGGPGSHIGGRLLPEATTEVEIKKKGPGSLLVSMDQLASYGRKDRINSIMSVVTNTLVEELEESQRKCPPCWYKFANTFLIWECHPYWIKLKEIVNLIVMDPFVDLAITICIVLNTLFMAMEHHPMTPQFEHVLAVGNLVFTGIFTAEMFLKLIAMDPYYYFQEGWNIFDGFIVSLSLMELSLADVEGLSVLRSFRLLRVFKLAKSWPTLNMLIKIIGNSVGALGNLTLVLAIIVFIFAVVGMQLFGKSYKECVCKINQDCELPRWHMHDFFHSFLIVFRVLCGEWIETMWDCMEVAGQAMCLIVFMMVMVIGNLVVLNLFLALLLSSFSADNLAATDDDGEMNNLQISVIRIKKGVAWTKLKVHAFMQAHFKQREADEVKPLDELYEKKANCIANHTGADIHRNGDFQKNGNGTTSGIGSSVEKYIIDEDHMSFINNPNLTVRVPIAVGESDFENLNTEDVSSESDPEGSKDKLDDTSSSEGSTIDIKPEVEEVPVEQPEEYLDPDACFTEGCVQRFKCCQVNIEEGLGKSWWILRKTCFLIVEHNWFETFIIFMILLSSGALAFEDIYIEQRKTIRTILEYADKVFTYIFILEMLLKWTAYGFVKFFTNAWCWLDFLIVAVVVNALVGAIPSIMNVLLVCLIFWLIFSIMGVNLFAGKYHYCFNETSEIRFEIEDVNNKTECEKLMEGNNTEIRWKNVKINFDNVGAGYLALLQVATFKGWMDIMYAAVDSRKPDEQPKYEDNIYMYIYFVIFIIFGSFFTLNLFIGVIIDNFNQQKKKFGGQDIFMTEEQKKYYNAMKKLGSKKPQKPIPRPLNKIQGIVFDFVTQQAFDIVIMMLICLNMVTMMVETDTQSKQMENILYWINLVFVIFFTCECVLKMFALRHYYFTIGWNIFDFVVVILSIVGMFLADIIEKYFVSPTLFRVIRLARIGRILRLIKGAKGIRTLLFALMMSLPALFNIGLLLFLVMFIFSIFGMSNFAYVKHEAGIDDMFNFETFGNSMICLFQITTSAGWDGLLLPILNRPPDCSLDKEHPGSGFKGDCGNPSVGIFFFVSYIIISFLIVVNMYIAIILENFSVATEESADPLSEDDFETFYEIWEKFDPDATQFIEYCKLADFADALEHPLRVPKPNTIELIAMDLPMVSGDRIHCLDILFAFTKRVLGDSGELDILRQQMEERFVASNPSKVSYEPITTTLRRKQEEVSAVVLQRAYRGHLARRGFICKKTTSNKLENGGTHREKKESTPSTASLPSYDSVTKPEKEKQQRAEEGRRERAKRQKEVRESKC

[2] = tested on: human iPS-derived cardiomyocytes; experiment: Automated patch-clamp of Na+ current in human iPS-derived cardiomyocytes; assay type: cell-based
Procedure: The control hiPSC cell line (ITXi002-A; IRX5-Wt[16]; RRID:CVCL_B5QD) was generated from primary dermal fibroblasts and previously characterized.[17–19] hiPSCs were maintained at 37°C, 5% CO2, 21% O2 in StemMacs PSC-Brew XF human medium (Miltenyi Biotec, #130-127-865) on culture plates coated with 0.05 mg/mL Matrigel hESC-Qualified Matrix (Corning, #354277) in DMEM F12 (Gibco, #11320033). At 75% confluency, the cells were passaged using the Gentle Cell Dissociation Reagent (StemCell Technologies, #07174).
We generated right ventricular-like cardioids on 96-well low-attachment plates using the Schmidt et al. (2023) protocol.[20] At D15.5, cardioids were pooled, dissociated, and replated as a monolayer in MW12 plates (Falcon, #353047) coated with Matrigel (Corning, #354277) for automated patch-clamp, and as single cells in 35-mm Petri dishes (NUNC #055055) coated with Matrigel for manual patch-clamp. Immediately before patch-clamp recording, cardiomyocytes were single-cell dissociated using Accutase (Sigma, #A6964).
For human iPSC-derived cardiomyocytes recordings, cells were resuspended at 300 000 cells/mL in a solution composed of 50% culture media and 50% extracellular buffer containing (in mM) 140 NaCl, 4 KCl, 2 CaCl2, 1 MgCl2, 5 glucose, and 10 HEPES (pH 7.4, osmolarity 298 mOsm) supplemented with 5 µM nifedipine. Single-hole, low-resistance chips (3–5 MΩ) were used. The intracellular solution contained (in mM) 10 KCl, 110 KF, 10 NaCl, 1 MgCl2, 1 CaCl2, 10 Ethylene Glycol Tetra-acetic Acid (EGTA), and 10 HEPES (pH 7.2, osmolarity 280 mOsm). Currents were recorded and analysed as previously described for stable cell lines.

hNav1.5 [3] = biological target: T1, hNav1.5; experiment: Manual patch-clamp on HEK293-Nav1.5; assay type: cell-based; settings: 10 nM; HP −120 mV, 1000-ms step to −20 mV, RT
Procedure: Whole-cell Nav currents were recorded at RT from HEK293 stably expressing hNav1.5, using an Axopatch 200A amplifier (Axon Instruments, Molecular Devices). Voltage-clamp protocols were applied using the pClamp 10.4 software suite (Axon Instruments), interfaced with the electrophysiological setup through a Digidata 1440A digitizer (Axon Instruments). Patch-clamp pipettes were fabricated from borosilicate glass capillaries (outer diameter: 1.5 mm; inner diameter: 0.86 mm; Sutter Instrument) using a P-97 micropipette puller (Sutter Instrument), yielding a pipette resistance of 0.8–1.5 MΩ when filled with the internal solution. The internal solution contained (in mM) 10 CsCl, 110 CsF, 10 NaCl, 10 EGTA, and 10 HEPES (pH 7.2, osmolarity 280 mOsm). The external solution contained (in mM) 100 NaCl, 4 KCl, 40 NMDG, 2 CaCl2, 1 MgCl2, 5 glucose, and 10 HEPES (pH 7.4, osmolarity 298 mOsm). All chemicals were purchased from Sigma-Aldrich. After 80% series resistance compensation, 1000-ms depolarizing steps to −20 mV were applied from a HP of −120 mV to record sodium current under control conditions, following application of 10 nM AaH-II*. Sweeps were delivered every 5 s. Current signals were filtered at 10 kHz before digitization at 50 kHz and storage. […] Data were compiled and analysed using ClampFit 11.2 (Axon Instruments), Microsoft Excel, and GraphPad Software Prism.

CC[C@H](C)[C@H](NC(=O)[C@H](Cc1ccc(O)cc1)NC(=O)CNC(=O)[C@H](CC(=O)O)NC(=O)[C@H](CCCCN)NC(=O)[C@@H](N)C(C)C)C(=O)N[C@H](C(=O)N[C@@H](CC(=O)O)C(=O)N[C@@H](CC(=O)O)C(=O)N[C@H](C(=O)N[C@@H](CC(N)=O)C(=O)N[C@H]1CSSC[C@@H](C(=O)N[C@@H](Cc2c[nH]cn2)C(N)=O)NC(=O)[C@H](CCCCN)NC(=O)CNC(=O)[C@@H]2CCCN2C(=O)CNC(=O)[C@H](CCCCN)NC(=O)[C@H]([C@@H](C)O)NC(=O)[C@H](CCCNC(=N)N)NC(=O)[C@H](C(C)C)NC(=O)[C@H](Cc2c[nH]cn2)NC(=O)[C@H](CC(=O)O)NC(=O)[C@@H]2CCCN2C(=O)[C@H](CC(C)C)NC(=O)[C@H](CCCCN)NC(=O)[C@H](Cc2ccc(O)cc2)NC(=O)[C@@H]2CSSC[C@@H]3NC(=O)[C@H](CCC(=O)O)NC(=O)[C@H](CCC(=O)O)NC(=O)[C@H](CC(N)=O)NC(=O)[C@@H]4CSSC[C@H](NC(=O)[C@H](C)NC(=O)[C@H](CC(N)=O)NC(=O)CNC(=O)[C@H](Cc5ccc(O)cc5)NC(=O)[C@@H]5CCCN5C(=O)[C@H](CO)NC(=O)[C@H](C)NC(=O)[C@H](Cc5c[nH]c6ccccc56)NC(=O)[C@H](CCC(N)=O)NC(=O)[C@H](CSSC[C@H](NC(=O)[C@H](Cc5ccccc5)NC(=O)[C@H](Cc5ccc(O)cc5)NC(=O)[C@H]([C@@H](C)O)NC1=O)C(=O)NCC(=O)N[C@@H](CCCNC(=N)N)C(=O)N[C@@H](CC(N)=O)C(=O)N[C@@H](C)C(=O)N[C@@H](Cc1ccc(O)cc1)C(=O)N4)NC(=O)[C@H](Cc1ccc(O)cc1)NC(=O)CNC(=O)[C@H](CO)NC(=O)[C@H](CCC(=O)O)NC(=O)CNC(=O)[C@H](CCCCN)NC(=O)[C@H](CC(C)C)NC(=O)[C@H](CCCCN)NC(=O)[C@H]([C@@H](C)O)NC3=O)C(=O)N[C@@H](Cc1ccc(O)cc1)C(=O)N2)C(C)C)C(C)C [AaH-II*]
arrhythmic rats (rats / all rats) (Wistar-Han rats; AaH-II* 3 μg/kg i.v.): none of the rats were arrhythmic | QTc (Wistar-Han rats; AaH-II* 3 µg/kg i.v., QTc = QT/(RR/100)^1/2, n = 5): 54.9 ± 5.2 | RR (Wistar-Han rats; AaH-II* 3 µg/kg i.v., anaesthetized rats, lead I, n = 5): 153.7 ± 5.6 ms | P wave (Wistar-Han rats; AaH-II* 3 µg/kg i.v., n = 5): 17.5 ± 0.3 ms | PR (Wistar-Han rats; AaH-II* 3 µg/kg i.v., n = 5): 47.5 ± 1.4 ms | QRS (Wistar-Han rats; AaH-II* 3 µg/kg i.v., n = 5): 16.9 ± 1.0 ms | T wave area (Wistar-Han rats; AaH-II* 3 µg/kg i.v., n = 5): 1.8 ± 0.5 mV/ms | rats with A-V blocks/ PVCs (rats / all rats) (Wistar-Han rats; AaH-II* 15 μg/kg i.v.): in all rats | P wave (Wistar-Han rats; AaH-II* 15 µg/kg i.v., n = 6): 18.0 ± 0.8 ms | PR (Wistar-Han rats; AaH-II* 15 µg/kg i.v., n = 6): 53.2 ± 5.4 ms | QRS (Wistar-Han rats; AaH-II* 15 µg/kg i.v., n = 6): 18.0 ± 0.6 ms | RR (Wistar-Han rats; AaH-II* 15 µg/kg i.v., n = 6): 181.6 ± 2.7 ms | T wave area (Wistar-Han rats; AaH-II* 15 µg/kg i.v., n = 6): 3.2 ± 0.5 mV/ms | P wave (Wistar-Han rats; AaH-II* 30 µg/kg i.v., n = 6): 18.9 ± 0.8 ms | PR (Wistar-Han rats; AaH-II* 30 µg/kg i.v., n = 6): 53.8 ± 2.2 ms | QRS (Wistar-Han rats; AaH-II* 30 µg/kg i.v., n = 6): 17.8 ± 0.3 ms | QTc (Wistar-Han rats; AaH-II* 30 µg/kg i.v., n = 6): 69.5 ± 3.3 | RR (Wistar-Han rats; AaH-II* 30 µg/kg i.v., n = 6): 176.8 ± 12.3 ms | T wave area (Wistar-Han rats; AaH-II* 30 µg/kg i.v., n = 6): 8.1 ± 1.9 mV/ms | Na+ entry through hNav1.5 in action potential-mimicking protocol (hNav1.5 [1]; 0.1 nM): indistinguishable from the control condition | Na+ entry through hNav1.5 in action potential-mimicking protocol (hNav1.5 [1]; 10 nM): capable of generating a measurable Na^+ current | INaL after 1 s depolarization (hNav1.5 [1]; hNav1.5, 10 nM): absence of AaH-II*-mediated INaL after 1 s depolarization | shift in voltage-dependence of activation (hNav1.5 [1]; hNav1.5, 10 nM): lack of shift in the voltage-dependence of activation and inactivation | maximal INaL stimulation (maximal AUC) (hNav1.5 [1]; hNav1.5, highest effective AaH-II* concentration): ~19 fold | concentration at which INaL is triggered / becomes noticeable (hNav1.5 [1]; hNav1.5, representative traces, test 0 mV): 0.3 nM | INaL after 1 s depolarization (hNav1.4; 10 nM): lack of effects of AaH-II* on those two parameters | shift in voltage-dependence of activation (hNav1.4; 10 nM): lack of effects of AaH-II* on those two parameters | maximal INaL stimulation (maximal AUC) (hNav1.4; highest effective AaH-II* concentration): six | concentration at which INaL is triggered / becomes noticeable (hNav1.4; representative traces, test 0 mV): 0.3 nM | hNav1.2 peak current inhibition (hNav1.2; above 1 nM): not observed | INaL after 1 s depolarization (hNav1.2; hNav1.2, 10 nM): significant INaL current at 1 s depolarization | shift in voltage-dependence of activation (hNav1.2; hNav1.2, 10 nM): lacked a significant shift in voltage-dependence of activation | concentration at which INaL is triggered / becomes noticeable (hNav1.2; hNav1.2, representative traces, test 0 mV): 0.1 nM | level at time molar (in vivo; 3 ug/kg): < 0.1 nM | level at time molar (in vivo; 15 ug/kg): 2.4 ± 0.4 nM | level at time molar (in vivo; 30 ug/kg): 4.3 ± 0.6 nM | activation of hNav1.6 current incl. INaL after TTX block (hNav1.6; 10 nM AaH-II* applied after 100 nM TTX): failed to activate any form of current | INaL after 1 s depolarization (hNav1.6; hNav1.6, 10 nM): maintained INaL after 1 s pulse | shift in voltage-dependence of activation (hNav1.6; hNav1.6, 10 nM): large AaH-II*-triggered hyperpolarizing shift in voltage-dependence of activation | concentration at which INaL is triggered / becomes noticeable (hNav1.6; hNav1.6, representative traces, test 0 mV): 0.1 nM | INaL in human iPS-derived cardiomyocytes ([2]; 0.1 nM AaH-II*): triggered a characteristic INaL | INaL in human iPS-derived cardiomyocytes ([2]; 10 nM AaH-II*): a greater INaL could be recorded | effect on peak current amplitude or INaL measured at 1 sec depolarization (hNav1.5 [3]): absence of effect
